Source: patent US20080138403A1, “PHARMACEUTICAL DOSAGE FORMS OF OXCARBAZEPINE” (Sun Pharmaceutical Industries Ltd., priority 2006, published 2008)

Legend:
[1] = particle size by Malvern laser diffraction; format: physicochemical
Protocol: The particle size of oxcarbazepine may be measured using laser light diffraction technique based instrument such as a Malvern Mastersizer Microplus apparatus. Other known methods of measuring particle size may also be used. The particle size distribution of oxcarbazepine was checked after subjecting the slurry of oxcarbazepine and the hydrophilic polymer in a solvent, to mixing in a colloid mill. The particle size was determined by Malvern laser diffraction technique. The particles were dispersed in an aqueous dispersion medium of Tween 20 (0.1 ml/litre).

[2] = cited from earlier work
[3] = Example 1 slurry after mixing in colloid mill, dispersed in aqueous Tween 20
[4] = oxcarbazepine used for the slurry of Example 2

Particle size D (v, 0.1) 10% particles undersized [1, 3]: 6.93 μm
Particle size D (v, 0.5) 50% particles undersized [1, 3]: 20.56 μm
Particle size D (v, 0.91) 90% particles undersized [1, 3]: 45.97 μm
median particle size D50 [1, 4]: 24.91 μm
particle size D10 [1, 4]: 6.59 μm
particle size D90 [1, 4]: 63.31 μm
SMILES: NC(=O)N1c2ccccc2CC(=O)c2ccccc21 [oxcarbazepine, 10,11-Dihydro-10-oxo-5H-dibenz [b,f]azepine-5-carboxamide]
solubility in water [2]: practically insoluble
